Measured values as given in ChEMBL document CHEMBL4513135, “CO-ADD screening of IQOG CSIS (Spain) compounds”.
In brackets after ≈: the same amount, converted by molar mass.

What was measured:
Candida albicans = test: microbe, parasite or virus in culture; conditions: ATCC 90028, ASSAY_TEST Inhibition of Fungal Growth, detection method Absorption (OD530), plate type 384well, NBS, CORNING #3640
Staphylococcus aureus = test: microbe, parasite or virus in culture; conditions: ATCC 43300, 18 h, ASSAY_TEST Inhibition of Bacterial Growth, detection method Absorption (OD600), MEDIA CAMHB, plate type 384well, NBS, CORNING #3640
Klebsiella pneumoniae = test: microbe, parasite or virus in culture; conditions: ATCC 700603, 18 h, ASSAY_TEST Inhibition of Bacterial Growth, detection method Absorption (OD600), MEDIA CAMHB, plate type 384well, NBS, CORNING #3640
Escherichia coli = test: microbe, parasite or virus in culture; conditions: ATCC 25922, 18 h, ASSAY_TEST Inhibition of Bacterial Growth, detection method Absorption (OD600), MEDIA CAMHB, plate type 384well, NBS, CORNING #3640
Pseudomonas aeruginosa = test: microbe, parasite or virus in culture; conditions: ATCC 27853, 18 h, ASSAY_TEST Inhibition of Bacterial Growth, detection method Absorption (OD600), MEDIA CAMHB, plate type 384well, NBS, CORNING #3640
Acinetobacter baumannii = test: microbe, parasite or virus in culture; conditions: ATCC 19606, 18 h, ASSAY_TEST Inhibition of Bacterial Growth, detection method Absorption (OD600), MEDIA CAMHB, plate type 384well, NBS, CORNING #3640
HEK293 = test: cells; assay type: functional; conditions: Homo sapiens, ATCC CRL1573, HEK293; ASSAY_TEST Inhibition of Cell Viability; detection method Resazurin; Fluorescence (ex560/em590); MEDIA DMEM with 10% FBS; plate type 384well; TC; CORNING #3712; time 18 hr

| SMILES | MIC (Candida albicans) [µg/mL] | MIC (Staphylococcus aureus) [µg/mL] | MIC (Klebsiella pneumoniae) [µg/mL] | MIC (Escherichia coli) [µg/mL] | MIC (Cryptococcus neoformans) [µg/mL] | MIC (Pseudomonas aeruginosa) [µg/mL] | MIC (Acinetobacter baumannii) [µg/mL] | CC50 (HEK293) [µg/mL] |
| --- | --- | --- | --- | --- | --- | --- | --- | --- |
| OCc1ccc(O)c2ncccc12 | 16 (≈ 91.3 µM) | > 32 | > 32 | > 32 | 16 (≈ 91.3 µM) | 32 (≈ 183 µM) | > 32 | 17.3 (≈ 98.8 µM) |
| Brc1nc(Br)c(Br)[nH]1 | > 32 | > 32 | > 32 | > 32 | > 32 | > 32 | > 32 | > 32 |
| CCOC(=O)C1=C(C)Nc2nc3c(c(N)c2C1c1ccccc1OC)CCCC3 (centres undefined) | > 32 | 32 (≈ 81.3 µM) | > 32 | > 32 | > 32 | > 32 | > 32 |  |
| COc1ccc2[nH]c3nc4c(c(N)c3c2c1)CCCC4 | > 32 | > 32 | > 32 | > 32 | 32 (≈ 120 µM) | 32 (≈ 120 µM) | > 32 | 15 (≈ 56.1 µM) |
| Cl.Nc1c2c(nc3[nH]c4ccccc4c13)CCCC2 | > 32 | > 32 | > 32 | > 32 | > 32 | 16 | > 32 | 4.74 |
| COc1nc(Cl)c(C#N)cc1C#N | 16 (≈ 82.6 µM) | > 32 | > 32 | > 32 | > 32 | > 32 | > 32 | 0.56 (≈ 2.89 µM) |
| O=C(CI)NCc1ccccc1 | > 32 | > 32 | > 32 | > 32 | 16 (≈ 58.2 µM) | > 32 | > 32 | 8.25 (≈ 30 µM) |
| CCOC(=O)C1=C(C)Nc2nc3c(c(N)c2C1c1ccccc1OC)CCCC3.Cl (centres undefined) | > 32 | 32 | > 32 | > 32 |  | > 32 | > 32 |  |
| CC1CC(=O)Nc2c1c(Br)nc1nc3c(c(N)c21)CCCC3 (centres undefined) | > 32 | > 32 | > 32 | > 32 | > 32 | > 32 | > 32 | 4.01 (≈ 11.1 µM) |
| N#C/C(=C\c1ccc([N+](=O)[O-])cc1)C(=O)c1ccccc1 | > 32 | > 32 | > 32 | > 32 | 32 (≈ 115 µM) | > 32 | > 32 | > 32 |
| Cc1ccc2nc(Cl)c(/C=N/O)cc2c1 | > 32 | > 32 | > 32 | > 32 | > 32 | > 32 | > 32 | > 32 |
| C#CCN(C)c1nc(N)c(C#N)c(-c2ccccc2)c1C#N | > 32 | > 32 | > 32 | > 32 | > 32 | > 32 | > 32 | > 32 |
| C#CCNc1nc(Cl)c(C#N)cc1C#N | 32 (≈ 148 µM) | > 32 | > 32 | > 32 | > 32 | > 32 | > 32 | 22.4 (≈ 103 µM) |
| C#CCNc1ccc(Cl)cn1 | > 32 | > 32 | > 32 | > 32 | > 32 | > 32 | > 32 | > 32 |
| Cc1ccc2nc(Cl)c(C=O)cc2c1 | > 32 | > 32 | > 32 | > 32 | 32 (≈ 156 µM) | > 32 | > 32 | 24.1 (≈ 117 µM) |
| Cl.ClCc1ccncc1 | 32 | > 32 | > 32 | > 32 | > 32 | > 32 | > 32 | > 32 |

Now from value to compound, other results behind:

| MIC (Candida albicans) [µg/mL] | MIC (Staphylococcus aureus) [µg/mL] | MIC (Klebsiella pneumoniae) [µg/mL] | MIC (Escherichia coli) [µg/mL] | MIC (Cryptococcus neoformans) [µg/mL] | MIC (Pseudomonas aeruginosa) [µg/mL] | MIC (Acinetobacter baumannii) [µg/mL] | SMILES | CC50 (HEK293) [µg/mL] |
| --- | --- | --- | --- | --- | --- | --- | --- | --- |
| > 32 | > 32 | > 32 | > 32 | > 32 | > 32 | > 32 | C=C=CCN(C)Cc1cc2cc(OCc3ccccc3)ccc2n1C.O=C(O)C(=O)O | 1.61 |
| 32 | > 32 | > 32 | > 32 | > 32 | > 32 | > 32 | C#CCN(C)Cc1cc2cc(OCc3ccccc3)ccc2[nH]1.O=C(O)C(=O)O | > 32 |
| > 32 | > 32 | > 32 | > 32 | > 32 | > 32 | > 32 | N#CC1=C(N)Oc2ccc3ccccc3c2C1c1ccc([N+](=O)[O-])cc1 (centres undefined) | 1.88 (≈ 5.48 µM) |
| > 32 | > 32 | > 32 | > 32 | > 32 | > 32 | > 32 | Cc1ccc2nc(Cl)c(/C=N/Cc3ccccc3)cc2c1 | > 32 |
| > 32 | > 32 | > 32 | > 32 | > 32 | > 32 | > 32 | C#CCN(C)Cc1cc2cc(OCCCCC3CCN(Cc4ccccc4)CC3)ccc2n1C.Cl | > 32 |
| > 32 | > 32 | > 32 | > 32 | > 32 | > 32 | > 32 | Nc1c2c(nc3c1CC(c1ccccc1)C(=O)N3)CCCC2 (centres undefined) | 11.3 (≈ 38.5 µM) |
| 32 (≈ 61.9 µM) | > 32 | > 32 | > 32 | 8 (≈ 15.5 µM) | > 32 | > 32 | C#CCN(C)c1nc(NCCCCC2CCN(Cc3ccccc3)CC2)c(C#N)c(-c2ccccc2)c1C#N | 3.73 (≈ 7.22 µM) |
| > 32 | > 32 | > 32 | > 32 | 32 (≈ 65.5 µM) | > 32 | > 32 | C#CCNc1nc(NCCCC2CCN(Cc3ccccc3)CC2)c(C#N)c(-c2ccccc2)c1C#N | 16 (≈ 32.7 µM) |
| > 32 | > 32 | > 32 | > 32 | > 32 | > 32 | > 32 | C#CCN(C)Cc1cc2cc(OCCCC3CCN(Cc4ccccc4)CC3)ccc2[nH]1.O=C(O)C(=O)O | 13.4 |
| > 32 | > 32 | > 32 | > 32 | > 32 | > 32 | > 32 | C#CCNc1nc(NCCC2CCN(Cc3ccccc3)CC2)c(C#N)c(-c2ccccc2)c1C#N | 11.3 (≈ 23.8 µM) |
| > 32 | > 32 | > 32 | > 32 | > 32 | > 32 | > 32 | Nc1n[nH]c2nc3[nH]nc(N)c3c(-c3ccccc3)c12 | 8.23 (≈ 31 µM) |
| > 32 | > 32 | > 32 | > 32 | > 32 | > 32 | > 32 | N#CC1=C(N)Oc2c(ccc3ccccc23)C1c1ccccc1[N+](=O)[O-] (centres undefined) | > 32 |
| > 32 | > 32 | > 32 | > 32 | 16 | > 32 | > 32 | C#CCN(C)c1nc(NCCCCC2CCN(Cc3ccccc3)CC2)c(C#N)c(-c2ccccc2)c1C#N.Cl | 4.12 |
| 32 | > 32 | > 32 | > 32 | 16 | > 32 | > 32 | CC(C)(C)OC(=O)n1c(COC(=O)NC2CCN(Cc3ccccc3)CC2)cc2cc(OCc3ccccc3)ccc21.O=C(O)C(=O)O | 9.19 |
| > 32 | > 32 | > 32 | > 32 | > 32 | > 32 | > 32 | CN(Cc1cn(-c2ccccc2)nn1)Cc1cc2cc(OCCCC3CCN(Cc4ccccc4)CC3)ccc2n1C.Cl | 3.55 |
| > 32 | > 32 | > 32 | > 32 | > 32 | > 32 | > 32 | C#CCNc1nc(NCCCCC2CCN(Cc3ccccc3)CC2)c(C#N)c(-c2ccccc2)c1C#N | 3.46 (≈ 6.88 µM) |
| > 32 | > 32 | > 32 | > 32 | > 32 | > 32 | > 32 | C#CCN(C)Cc1cc2cc(OCCCC3CCNCC3)ccc2n1C.C#CCN(C)Cc1cc2cc(OCCCC3CCNCC3)ccc2n1C.Cl.Cl.Cl.Cl.O | 17.2 |
| > 32 | > 32 | > 32 | > 32 | > 32 | > 32 | > 32 | N#CC1(Br)C(=N)Oc2ccc3ccccc3c2C1c1ccccc1[N+](=O)[O-] (centres undefined) | 5.83 (≈ 13.8 µM) |
